Reference: PubChem BioAssay (NCI)
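Protocol summary: plate cells (96-well), add compound at 5 concentrations, incubate 48 h, interpolate endpoints linearly. TGI is the concentration that stops growth completely.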

How the values were obtained:
Test in all cases: NCI tumour cell line growth inhibition, 48 h
K-562 leukemia = system: K-562 leukemia
NCI-H23 lung = system: NCI-H23 lung
EKVX NSCLC = system: EKVX NSCLC
SW-620 colon = system: SW-620 colon
LOX IMVI melanoma = system: LOX IMVI melanoma
HT29 colon = system: HT29 colon
TK-10 renal = system: TK-10 renal
PC-3 prostate = system: PC-3 prostate
SNB-75 CNS = system: SNB-75 CNS
OVCAR-4 ovarian = system: OVCAR-4 ovarian
MDA-MB-435 = system: MDA-MB-435
ACHN renal = system: ACHN renal
RXF 393 renal = system: RXF 393 renal
A549 NSCLC = system: A549 NSCLC
DU-145 prostate = system: DU-145 prostate
HOP-62 NSCLC = system: HOP-62 NSCLC
SR leukemia = system: SR leukemia
HOP-92 NSCLC = system: HOP-92 NSCLC
CAKI-1 renal = system: CAKI-1 renal
UACC-257 melanoma = system: UACC-257 melanoma
KM12 colon = system: KM12 colon
T-47D breast = system: T-47D breast
NCI-H226 lung = system: NCI-H226 lung
SN12C renal = system: SN12C renal
IGROV1 ovarian = system: IGROV1 ovarian
U251 CNS = system: U251 CNS
OVCAR-3 ovarian = system: OVCAR-3 ovarian
A498 renal = system: A498 renal
SF-539 CNS = system: SF-539 CNS
BT-549 breast = system: BT-549 breast
MDA-MB-231 breast = system: MDA-MB-231 breast
SK-MEL-2 melanoma = system: SK-MEL-2 melanoma
RPMI-8226 leukemia = system: RPMI-8226 leukemia
MDA-N = system: MDA-N
UO-31 renal = system: UO-31 renal
UACC-62 melanoma = system: UACC-62 melanoma
M14 melanoma = system: M14 melanoma
SK-MEL-5 melanoma = system: SK-MEL-5 melanoma
786-0 renal = system: 786-0 renal
NCI-H522 lung = system: NCI-H522 lung
SNB-19 CNS = system: SNB-19 CNS
OVCAR-5 ovarian = system: OVCAR-5 ovarian
HCC-2998 colon = system: HCC-2998 colon
SK-MEL-28 melanoma = system: SK-MEL-28 melanoma
NCI/ADR-RES ovarian = system: NCI/ADR-RES ovarian
HCT-116 colon = system: HCT-116 colon
HCT-15 colon = system: HCT-15 colon
HS 578T breast = system: HS 578T breast
OVCAR-8 ovarian = system: OVCAR-8 ovarian
MALME-3M melanoma = system: MALME-3M melanoma
NCI-H460 lung = system: NCI-H460 lung
MCF7 breast = system: MCF7 breast
HL-60(TB) leukemia = system: HL-60(TB) leukemia
SF-268 CNS = system: SF-268 CNS
SK-OV-3 ovarian = system: SK-OV-3 ovarian
SF-295 CNS = system: SF-295 CNS
COLO 205 colon = system: COLO 205 colon
MOLT-4 leukemia = system: MOLT-4 leukemia

## Oc1ccc(-c2nc3ccc4ccccc4c3c3c2CCCC3)c(O)c1
K-562 leukemia
  TGI: > 100 µM
NCI-H23 lung
  TGI: > 100 µM
EKVX NSCLC
  TGI: > 100 µM
SW-620 colon
  TGI: > 68 µM
LOX IMVI melanoma
  TGI: > 100 µM
HT29 colon
  TGI: 25.4 µM
TK-10 renal
  TGI: 97.9 µM
PC-3 prostate
  TGI: > 100 µM
SNB-75 CNS
  TGI: > 100 µM
OVCAR-4 ovarian
  TGI: > 100 µM
MDA-MB-435
  TGI: > 63.7 µM
ACHN renal
  TGI: 85 µM
RXF 393 renal
  TGI: > 84.3 µM
A549 NSCLC
  TGI: > 100 µM
DU-145 prostate
  TGI: > 100 µM
HOP-62 NSCLC
  TGI: > 100 µM
SR leukemia
  TGI: > 100 µM
HOP-92 NSCLC
  TGI: > 100 µM
CAKI-1 renal
  TGI: > 100 µM
UACC-257 melanoma
  TGI: > 100 µM
KM12 colon
  TGI: > 100 µM
T-47D breast
  TGI: > 100 µM
NCI-H226 lung
  TGI: > 100 µM
SN12C renal
  TGI: 32.8 µM
IGROV1 ovarian
  TGI: > 56.5 µM
U251 CNS
  TGI: > 40.5 µM
OVCAR-3 ovarian
  TGI: > 100 µM
A498 renal
  TGI: > 100 µM
SF-539 CNS
  TGI: > 73.2 µM
BT-549 breast
  TGI: > 100 µM
MDA-MB-231 breast
  TGI: 37 µM
SK-MEL-2 melanoma
  TGI: 37.6 µM
RPMI-8226 leukemia
  TGI: > 100 µM
MDA-N
  TGI: 39.3 µM
UO-31 renal
  TGI: > 100 µM
UACC-62 melanoma
  TGI: > 50.6 µM
M14 melanoma
  TGI: 35.9 µM
SK-MEL-5 melanoma
  TGI: 27.1 µM
786-0 renal
  TGI: 24 µM
NCI-H522 lung
  TGI: 41.1 µM
SNB-19 CNS
  TGI: 71.2 µM
OVCAR-5 ovarian
  TGI: 49.1 µM
HCC-2998 colon
  TGI: > 100 µM
SK-MEL-28 melanoma
  TGI: > 50.6 µM
NCI/ADR-RES ovarian
  TGI: > 100 µM
HCT-116 colon
  TGI: 22.6 µM
HCT-15 colon
  TGI: > 100 µM
HS 578T breast
  TGI: 88.9 µM
OVCAR-8 ovarian
  TGI: > 68.1 µM
MALME-3M melanoma
  TGI: > 59.1 µM
NCI-H460 lung
  TGI: > 100 µM
MCF7 breast
  TGI: > 69.8 µM
HL-60(TB) leukemia
  TGI: > 100 µM
SF-268 CNS
  TGI: > 72 µM
SK-OV-3 ovarian
  TGI: > 100 µM
SF-295 CNS
  TGI: > 74.1 µM
COLO 205 colon
  TGI: 23.9 µM
MOLT-4 leukemia
  TGI: > 100 µM
